Data reported in patent US20240294531A1, “COVALENT HETEROCYCLES AND USES THEREOF” (Kumquat Biosciences Inc., priority 2022, published 2024).

Assays:
BTK C481S protein = BTK C481S protein (Homo sapiens (Human), UniProt Q06187, C481S); assay: BTK C481S HTRF displacement assay; assay type: binding; conditions: 1-hour incubation
Summary of the method: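 Tracer displacement read by HTRF after 1 hour at room temperature: GST-BTK C481S 2-659, 50 nM tracer 239 (Kd 54 nM), anti-GST antibody, compound in six four-fold doses from 5 μM. Percent inhibition versus DMSO fitted (bottom 0, top 100) for IC50, converted to KI via Cheng-Prusoff.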

BTK wildtype protein = BTK wildtype protein (Homo sapiens (Human), UniProt Q06187); assay: BTK wildtype HTRF displacement assay; assay type: binding; conditions: 1-hour incubation; read-out: BTK (wt) IC50
Sequence of BTK wildtype protein (Q06187 2-659): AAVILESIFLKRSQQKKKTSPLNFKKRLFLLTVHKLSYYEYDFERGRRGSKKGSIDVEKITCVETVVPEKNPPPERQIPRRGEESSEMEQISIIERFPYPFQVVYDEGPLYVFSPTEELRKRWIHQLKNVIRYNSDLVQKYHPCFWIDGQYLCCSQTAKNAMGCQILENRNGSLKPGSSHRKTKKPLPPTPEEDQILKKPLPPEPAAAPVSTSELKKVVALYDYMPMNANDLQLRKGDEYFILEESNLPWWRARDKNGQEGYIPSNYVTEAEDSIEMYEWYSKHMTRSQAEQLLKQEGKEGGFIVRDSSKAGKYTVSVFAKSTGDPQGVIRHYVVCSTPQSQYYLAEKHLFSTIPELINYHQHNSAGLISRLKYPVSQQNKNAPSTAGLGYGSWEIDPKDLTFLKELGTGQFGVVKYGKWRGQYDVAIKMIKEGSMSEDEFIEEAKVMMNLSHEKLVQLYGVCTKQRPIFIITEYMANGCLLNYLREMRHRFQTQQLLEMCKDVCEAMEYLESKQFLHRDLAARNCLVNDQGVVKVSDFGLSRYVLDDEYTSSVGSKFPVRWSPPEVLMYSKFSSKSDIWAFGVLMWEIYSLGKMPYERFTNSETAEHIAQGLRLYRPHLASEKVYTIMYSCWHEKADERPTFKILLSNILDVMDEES
Summary of the method: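 Tracer-displacement HTRF format: compound and tracer 239 compete at the BTK active site, detected via anti-GST-Tb on GST-tagged full-length enzyme. One-hour room-temperature incubation; compounds dosed at six four-fold steps down from 5 μM. Percent inhibition versus DMSO gives IC50 by constrained four-parameter logistic fit.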

Sequence of BTK C481S protein (Q06187 2-659 C481S): as the sequence (Q06187 2-659) above, with C480S counted along it

| IC50 (BTK C481S protein) | IC50 (BTK wildtype protein) | SMILES |
| --- | --- | --- |
| > 1000 nM | > 1000 nM | COc1ccc(F)cc1C(=O)NCc1ccc(-c2nn(C(C)CC3CCCN3C(=O)n3cncn3)c3ncnc(N)c23)cc1 (stereo not drawn) [Compound 279, N-(4-(1-(1-(1-(1H-1,2,4-triazole-1-carbonyl)pyrrolidin-2-yl)propan-2-yl)-4-amino-1H-pyrazolo[3,4-d]pyrimidin-3-yl)benzyl)-5-fluoro-2-methoxybenzamide] |
| ≤ 1000 nM | ≤ 1000 nM | COc1ccc(F)cc1C(=O)NCc1ccc(-c2nn(CC3CCC(N(C)C(=O)n4cncn4)C3)c3ncnc(N)c23)cc1 (stereo not drawn) [Compound 311, N-(3-((4-amino-3-(4-((5-fluoro-2-methoxybenzamido)methyl)phenyl)-1H-pyrazolo[3,4-d]pyrimidin-1-yl)methyl)cyclopentyl)-N-methyl-1H-1,2,4-triazole-1-carboxamide] |
| ≤ 1000 nM | ≤ 1000 nM | COc1ccc(F)cc1C(=O)NCc1ccc(-c2nn(C(C)C3CCCCN3C(=O)n3cncn3)c3ncnc(N)c23)cc1 (stereo not drawn) [Compound 304, N-(4-(1-(1-(1-(1H-1,2,4-triazole-1-carbonyl)piperidin-2-yl)ethyl)-4-amino-1H-pyrazolo[3,4-d]pyrimidin-3-yl)benzyl)-5-fluoro-2-methoxybenzamide] |
| > 1000 nM | > 1000 nM | NC(=O)c1c(-c2ccc(Oc3ccccc3)cc2)nn2c1NCC1CN(C(=O)n3cncn3)CC12 (stereo not drawn) [Compound 228, 2-(4-phenoxyphenyl)-7-(1H-1,2,4-triazole-1-carbonyl)-5,5a,6,7,8,8a-hexahydro-4H-pyrazolo[1,5-a] pyrrolo[3,4-e]pyrimidine-3-carboxamide] |
| ≤ 1000 nM | > 1000 nM | COc1ccc(F)cc1C(=O)NCc1ccc(-c2nn(C[C@@H]3C[C@@H](F)CN3C(=O)n3cncn3)c3ncnc(N)c23)cc1 [Compound 221, N-(4-(4-amino-1-(((2S,4R)-4-fluoro-1-(1H-1,2,4-triazole-1-carbonyl)pyrrolidin-2-yl)methyl)-1H-pyrazolo[3,4-d]pyrimidin-3-yl)benzyl)-5-fluoro-2-methoxybenzamide] |
| ≤ 1000 nM | ≤ 1000 nM | CN(C(=O)n1cncn1)C1CCC2C(CNc3c(C(N)=O)c(-c4ccc(Oc5ccccc5)cc4)nn32)C1 (stereo not drawn) [Compound 199, 7-(N-methyl-1H-1,2,4-triazole-1-carboxamido)-2-(4-phenoxyphenyl)-4,5,5a,6,7,8,9,9a-octahydro-pyrazolo[1,5-a]quinazoline-3-carboxamide] |
| ≤ 1000 nM | > 1000 nM | COc1ccc(F)cc1C(=O)NCc1ccc(-c2nn(C[C@H]3CCCCN3C(=O)n3cncn3)c3ncnc(N)c23)cc1 [Compound 104, (R)-N-(4-(1-((1-(1H-1,2,4-triazole-1-carbonyl)piperidin-2-yl)methyl)-4-amino-1H-pyrazolo[3,4-d]pyrimidin-3-yl)benzyl)-5-fluoro-2-methoxybenzamide] |
| ≤ 1000 nM | ≤ 1000 nM | COc1ccc(F)cc1C(=O)NCc1ccc(-c2nn(C[C@@H]3C[C@H](F)CN3C(=O)n3cncn3)c3ncnc(N)c23)cc1 [Compound 208, N-(4-(4-amino-1-(((2S,4S)-4-fluoro-1-(1H-1,2,4-triazole-1-carbonyl)pyrrolidin-2-yl)methyl)-1H-pyrazolo[3,4-d]pyrimidin-3-yl)benzyl)-5-fluoro-2-methoxybenzamide] |
| ≤ 1000 nM | ≤ 1000 nM | NC(=O)c1c(-c2ccc(Oc3ccccc3)cc2)nn2c1NCC1CN(C(=O)n3cncn3)CCC12 (stereo not drawn) [Compound 306, 2-(4-phenoxyphenyl)-7-(1H-1,2,4-triazole-1-carbonyl)-4,5,5a,6,7,8,9,9a-octahydropyrazolo[1,5-a]pyrido[3,4-e]pyrimidine-3-carboxamide] |

The next lines start with the compound.

| SMILES | IC50 (BTK C481S protein) | IC50 (BTK wildtype protein) |
| --- | --- | --- |
| NC(=O)c1c(-c2ccc(Oc3ccccc3)cc2)nn(C2CCCC3C2CCN3C(=O)n2cncn2)c1N (stereo not drawn) [Compound 197, 1-(1-(1H-1,2,4-triazole-1-carbonyl)octahydro-1H-indol-4-yl)-5-amino-3-(4-phenoxy-phenyl)-1H-pyrazole-4-carboxamide] | ≤ 1000 nM | ≤ 1000 nM |
| COc1ccc(F)cc1C(=O)NCc1ccc(-c2nn(CC3CN(C)CCN3C(=O)n3cncn3)c3ncnc(N)c23)cc1 (stereo not drawn) [Compound 178, N-(4-(4-amino-1-((4-methyl-1-(1H-1,2,4-triazole-1-carbonyl)piperazin-2-yl)methyl)-1H-pyrazolo[3,4-d]pyrimidin-3-yl)benzyl)-5-fluoro-2-methoxybenzamide] | > 1000 nM | > 1000 nM |
| CN(C(=O)n1cnc(Cl)n1)C1CCCC(n2nc(-c3ccc(Oc4ccccc4)cc3)c3c(N)ncnc32)C1 (stereo not drawn) [Compound 239, N-(3-(4-amino-3-(4-phenoxyphenyl)-1H-pyrazolo[3,4-d]pyrimidin-1-yl)cyclohexyl)-3-chloro-N-methyl-1H-1,2,4-triazole-1-carboxamide] | ≤ 1000 nM | ≤ 1000 nM |
| COc1ccc(F)cc1C(=O)NCc1ccc(-c2nn(CC3CCCN3C(=O)n3cncn3)c(N)c2C(N)=O)cc1 (stereo not drawn) [Compound 293, 1-((1-(1H-1,2,4-triazole-1-carbonyl)pyrrolidin-2-yl)methyl)-5-amino-3-(4-((5-fluoro-2-methoxybenzamido)methyl)phenyl)-1H-pyrazole-4-carboxamide] | ≤ 1000 nM | ≤ 1000 nM |
| COc1ccc(F)cc1C(=O)NCc1ccc(-c2nn(C[C@H]3CCCCN3C(=O)n3cncn3)c3[nH]c(=O)[nH]c(=O)c23)cc1 [Compound 185, (R)-N-(4-(1-((1-(1H-1,2,4-triazole-1-carbonyl)piperidin-2-yl)methyl)-4,6-dioxo-4,5,6,7-tetrahydro-1H-pyrazolo[3,4-d]pyrimidin-3-yl)benzyl)-5-fluoro-2-methoxybenzamide] | ≤ 1000 nM | > 1000 nM |
| COc1ccc(F)cc1C(=O)NCc1ccc(-c2nn(CC3COCCN3C(=O)n3cncn3)c3ncnc(N)c23)cc1 (stereo not drawn) [Compound 210, N-(4-(1-((4-(1H-1,2,4-triazole-1-carbonyl)morpholin-3-yl)methyl)-4-amino-1H-pyrazolo[3,4-d]pyrimidin-3-yl)benzyl)-5-fluoro-2-methoxybenzamide] | > 1000 nM | > 1000 nM |
| COC[C@H](C1CCNc2c(C(N)=O)c(-c3ccc(Oc4ccccc4)cc3)nn21)N(C)C(=O)n1cncn1 (stereo partly drawn) [Compound 156, 7-((S)-2-methoxy-1-(N-methyl-1H-1,2,4-triazole-1-carboxamido)ethyl)-2-(4-phenoxyphenyl)-4,5,6,7-tetrahydropyrazolo[1,5-a] pyrimidine-3-carboxamide] | > 1000 nM | > 1000 nM |
| CN(CC1CCNc2c(C(N)=O)c(-c3ccc(Oc4ccccc4)cc3)nn21)C(=O)n1cncn1 (stereo not drawn) [Compound 113, 7-((N-methyl-1H-1,2,4-triazole-1-carboxamido)methyl)-2-(4-phenoxyphenyl)-4,5,6,7-tetrahydro-pyrazolo[1,5-a]pyrimidine-3-carboxamide] | > 1000 nM | > 1000 nM |
| CN(C(=O)n1cncn1)c1ccccc1C1CCNc2c(C(N)=O)c(-c3ccc(Oc4ccccc4)cc3)nn21 (stereo not drawn) [Compound 305, 7-(2-(N-methyl-1H-1,2,4-triazole-1-carboxamido)phenyl)-2-(4-phenoxyphenyl)-4,5,6,7-tetrahydropyrazolo[1,5-a] pyrimidine-3-carboxamide] | > 1000 nM | > 1000 nM |
